Experiment [1] has as its target Recombinant human JAK1 catalytic domain (Homo sapiens (Human), UniProt P23458). The experiment can be described thus: JAK1 inhibition assay. Particulars: semi-quantitative score. The experiment is classed as biochemical. In a few lines:
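IC50 values come from dose-response series, with each point expressed as percent inhibition of cpm. Vehicle sets full activity and 10 μM staurosporine sets background. Incorporated radioactivity counted by scintillation after washing with 75 mM phosphoric acid.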

Experiment [2] has as its target Recombinant human JAK2 catalytic domain (Homo sapiens (Human), UniProt O60674). Description: JAK2 inhibition assay. The experiment is classed as biochemical. Conditions: semi-quantitative score. In a few lines: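 Activity was taken as vehicle cpm minus cpm with 10 μM staurosporine, and inhibition was expressed on that scale. Incubation was 90 min at 30 °C, followed by acid quench, phosphoric acid washes and Microscint counting. Compounds were tested as dose series to obtain IC50.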

The subject of experiment [3] is JAK-STAT signalling in HeLa cells. Description: JAK-STAT signalling assay (OSM-triggered pSTAT1(2)-luciferase reporter in HeLa cells). The experiment is classed as cell-based. Particulars: Homo sapiens; HeLa cells, OSM-triggered pSTAT1(2)-luciferase reporter; read-out: STAT signalling EC50. As for the experimental part: HeLa cells were maintained in Dulbecco's Modified Eagle's Medium (DMEM) containing 10% heat inactivated fetal calf serum, 100 U/mL penicillin and 100 μg/mL streptomycin. HeLa cells were used at 70% confluence for transfection. 20,000 cells in 87 μL cell culture medium were transiently transfected with 40 ng pSTAT1(2)-luciferase reporter (Panomics), 8 ng of LacZ reporter as internal control reporter and 52 ng of pBSK using 0.32 μL Jet-PEI (Polyplus) as transfection reagent per well in 96-well plate format. After overnight incubation at 37° C., 10% CO2, transfection medium was removed.
40 μL of cell lysate was used to read β-galactosidase activity by adding 180 μL βGal solution (30 μl ONPG 4 mg/mL+150 μL β-Galactosidase buffer (0.06 M Na2HPO4, 0.04 M NaH2PO4, 1 mM MgCl2)) for 20 min.
Luciferase activity was measured using 40 μL cell lysate plus 40 μl of Steadylite® as described by the manufacturer (Perkin Elmer), on the Envision (Perkin Elmer).
The positive and negative controls were used to calculate z’ and ‘percent inhibition’ (PIN) values.
PIN values were plotted for compounds tested in dose-response and EC50 values were derived.
(Reporter assays use an easily measured gene product as a stand-in for the process of interest.)

Another experiment relates to MMP13 in SW1353 cells. The experiment can be described thus: OSM/IL-1β signaling assay (MMP13 levels in SW1353 cells).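 Further: secreted MMP13 captured by antibody, activated with APMA and its activity read by fluorescence, inhibition scaled between vehicle-treated triggered wells (0%) and untriggered wells (100%).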 It is filed as cell-based. Conditions: Homo sapiens; SW1353 cells, OSM and IL-1β triggered, MMP13 levels 48 hours after triggering; read-out: MMP13 EC50.

By IC50 is commonly meant the concentration that gives 50% inhibition. Usually EC50 stands for the concentration that produces a half-maximal response.

Chain of Recombinant human JAK2 catalytic domain (O60674 808-1132): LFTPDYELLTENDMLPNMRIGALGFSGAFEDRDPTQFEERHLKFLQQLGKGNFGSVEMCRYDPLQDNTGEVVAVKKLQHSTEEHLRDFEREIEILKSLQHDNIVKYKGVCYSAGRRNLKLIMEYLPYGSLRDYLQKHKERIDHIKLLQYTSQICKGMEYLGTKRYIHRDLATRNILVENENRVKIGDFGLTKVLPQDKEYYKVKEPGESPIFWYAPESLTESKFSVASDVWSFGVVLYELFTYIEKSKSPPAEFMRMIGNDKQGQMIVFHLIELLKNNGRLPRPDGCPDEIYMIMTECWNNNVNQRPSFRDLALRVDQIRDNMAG
Chain of Recombinant human JAK1 catalytic domain (P23458 850-1154): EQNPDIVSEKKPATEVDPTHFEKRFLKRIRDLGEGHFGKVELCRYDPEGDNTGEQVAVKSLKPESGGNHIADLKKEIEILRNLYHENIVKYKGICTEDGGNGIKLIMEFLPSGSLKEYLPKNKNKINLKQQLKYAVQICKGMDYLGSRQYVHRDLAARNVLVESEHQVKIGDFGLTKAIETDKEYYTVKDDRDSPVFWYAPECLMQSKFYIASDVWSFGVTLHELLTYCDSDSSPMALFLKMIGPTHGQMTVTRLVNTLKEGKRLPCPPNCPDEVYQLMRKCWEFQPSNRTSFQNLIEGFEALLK

Take `O=C(Nc1ccc(-c2cccc3nc(NC(=O)C4CC4)nn23)cc1)c1ccc(C(F)(F)F)cc1` [Compound 22, N-(4-(2-(cyclopropanecarboxamido)-[1,2,4]triazolo[1,5-a]pyridin-5-yl)phenyl)-4-(trifluoromethyl)benzamide]: the half-maximal inhibitory concentration (IC50) in experiment [1] and in experiment [2] was 101 to 500 nM throughout. The EC50 (in experiment [3]; in the experiment with MMP13 in SW1353 cells) was > 1000 nM throughout.

As for `O=C(Nc1nc2cccc(-c3ccc(C(=O)N4CCOCC4)cc3)n2n1)C1CC1` [Compound 24, N-(5-(4-(morpholine-4-carbonyl)phenyl)-[1,2,4]triazolo[1,5-a]pyridin-2-yl)cyclopropanecarboxamide], the IC50 in experiment [1] and in experiment [2] was 101 to 500 nM in each case. Besides, the EC50 in the experiment with MMP13 in SW1353 cells was > 1000 nM.

Regarding `O=C(NC1CCCCC1)c1ccc(-c2cccc3nc(NC(=O)C4CC4)nn23)cc1` [Compound 26, N-cyclohexyl-4-(2-(cyclopropanecarboxamido)-[1,2,4]triazolo[1,5-a]pyridin-5-yl)benzamide], the IC50 in experiment [1] and in experiment [2] was 101 to 500 nM each time. The EC50 (in experiment [3]; with MMP13 in SW1353 cells) was > 1000 nM throughout.

Consider `CC(C)(C)C1CCN(C(=O)c2ccc(-c3cccc4nc(NC(=O)C5CC5)nn34)cc2)CC1` [Compound 27, N-(5-(4-(4-tert-butylpiperidine-1-carbonyl)phenyl)-[1,2,4]triazolo[1,5-a]pyridin-2-yl)cyclopropanecarboxamide], for which the IC50 in experiment [1] is 101 to 500 nM; in experiment [2], 501 to 1000 nM. Further, the EC50 (in experiment [3]; in the experiment with MMP13 in SW1353 cells) was > 1000 nM in each case.

Turning to `O=C(Nc1nc2cccc(-c3ccc(C(=O)N4CCCNCC4)cc3)n2n1)C1CC1` [Compound 28, N-(5-(4-(1,4-diazepane-1-carbonyl)phenyl)-[1,2,4]triazolo[1,5-a]pyridin-2-yl)cyclopropanecarboxamide], the half-inhibitory concentration (IC50) in experiment [1] was 101 to 500 nM; in experiment [2] it was > 1000 nM. Moreover, the concentration giving a half-maximal response (EC50) (in experiment [3]; in the experiment with MMP13 in SW1353 cells) was > 1000 nM in each case.

In the case of `COc1ccc(CN(C)C(=O)c2ccc(-c3cccc4nc(NC(=O)C5CC5)nn34)cc2)cc1` [Compound 31, 4-(2-(cyclopropanecarboxamido)-[1,2,4]triazolo[1,5-a]pyridin-5-yl)-N-(4-methoxybenzyl)-N-methylbenzamide], the IC50 in experiment [1] was < 100 nM; in experiment [2], 101 to 500 nM. Besides, the half-maximal effective concentration (EC50) (in experiment [3]; with MMP13 in SW1353 cells) was > 1000 nM each time.

Regarding `CN1CCC(NC(=O)c2ccc(-c3cccc4nc(NC(=O)C5CC5)nn34)cc2)CC1` [Compound 32, 4-(2-(cyclopropanecarboxamido)-[1,2,4]triazolo[1,5-a]pyridin-5-yl)-N-(1-methylpiperidin-4-yl)benzamide], the IC50 in experiment [1] was 501 to 1000 nM; in experiment [2], > 1000 nM. Moreover, the 50% effective concentration (EC50) with MMP13 in SW1353 cells was > 1000 nM.

On to `O=C(Nc1nc2cccc(-c3ccc(NS(=O)(=O)c4ccccc4)cc3)n2n1)C1CC1` [Compound 79, N-(5-(4-(phenylsulfonamido)phenyl)-[1,2,4]triazolo[1,5-a]pyridin-2-yl)cyclopropanecarboxamide], for which, in experiment [1], the concentration for half-maximal inhibition (IC50) was < 100 nM. The half-maximal effective concentration (EC50) in experiment [3] was > 1000 nM; in the experiment on MMP13 in SW1353 cells, 501 to 1000 nM.

Regarding `CC1CCN(C(=O)c2ccc(-c3cccc4nc(NC(=O)C5CC5)nn34)cc2)CC1` [Compound 146, N-(5-(4-(4-methylpiperidine-1-carbonyl)phenyl)-[1,2,4]triazolo[1,5-a]pyridin-2-yl)cyclopropanecarboxamide], the half-inhibitory concentration (IC50) in experiment [1] was < 100 nM. Moreover, the EC50 (in experiment [3]; with MMP13 in SW1353 cells) was > 1000 nM throughout.

For `O=C(Nc1nc2cccc(-c3ccc(OCc4ccc(-c5nnn[nH]5)nc4)cc3)n2n1)C1CC1` [Compound 183, Cyclopropanecarboxylic Acid (5-{4-[6-(2H-tetrazol-5-yl)-pyridin-3-ylmethoxy]-phenyl}-[1,2,4]triazolo[1,5-a]pyridin-2-yl)-amide], the IC50 in experiment [1] was < 100 nM. Also, the concentration giving a half-maximal response (EC50) (in experiment [3]; with MMP13 in SW1353 cells) was > 1000 nM each time.

Take `O=C(Nc1cccnn1)c1ccc(-c2cccc3nc(NC(=O)C4CC4)nn23)cc1` [Compound 221, 4-[2-(Cyclopropanecarbonyl-amino)-[1,2,4]triazolo[1,5-a]pyridin-5-yl]-N-pyridazin-3-yl-benzamide]: the half-inhibitory concentration (IC50) in experiment [1] was < 100 nM; in experiment [2] it was 101 to 500 nM. The EC50 (in experiment [3]; in the experiment with MMP13 in SW1353 cells) was > 1000 nM throughout.

In the case of `O=C(Nc1nc2cccc(-c3ccc(CNc4cccnn4)cc3)n2n1)C1CC1` [Compound 222, Cyclopropanecarboxylic acid {5-[4-(pyridazin-3-ylaminomethyl)-phenyl]-[1,2,4]triazolo[1,5-a]pyridin-2-yl}-amide], the IC50 in experiment [1] was < 100 nM; in experiment [2], 101 to 500 nM. In addition, the concentration giving a half-maximal response (EC50) (in experiment [3]; in the experiment with MMP13 in SW1353 cells) was > 1000 nM each time.

For the compound `O=C(Nc1nc2cccc(-c3ccc(CNc4cccnc4)cc3)n2n1)C1CC1` [Compound 223, Cyclopropanecarboxylic acid {5-[4-(pyridin-3-ylaminomethyl)-phenyl]-[1,2,4]triazolo[1,5-a]pyridin-2-yl}-amide], the half-inhibitory concentration (IC50) is < 100 nM in experiment [1] and 501 to 1000 nM in experiment [2]. Further, the concentration giving a half-maximal response (EC50) (in experiment [3]; in the experiment on MMP13 in SW1353 cells) was > 1000 nM each time.

Consider `O=C(Nc1nc2cccc(-c3ccc(CN4CCOC(c5ccccc5)C4)cc3)n2n1)C1CC1` (stereo not drawn) [Compound 231], for which the IC50 in experiment [1] is < 100 nM; in experiment [2], 101 to 500 nM. Moreover, the 50% effective concentration (EC50) in experiment [3] is > 1000 nM; in the experiment with MMP13 in SW1353 cells, 1 to 500 nM.

Consider `O=C(Nc1nc2cccc(-c3ccc(COc4ccccc4)cc3)n2n1)C1CC1` [Compound 238, Cyclopropanecarboxylic acid [5-(4-phenoxymethyl-phenyl)-[1,2,4]triazolo[1,5-a]pyridin-2-yl]-amide], for which the half-maximal inhibitory concentration (IC50) in experiment [1] and in experiment [2] was < 100 nM in each case. Further, the EC50 in experiment [3] was 501 to 1000 nM; in the experiment with MMP13 in SW1353 cells, > 1000 nM.

For `O=C(Nc1nc2cccc(-c3ccc(C(=O)N4CCCC(O)C4)cc3)n2n1)C1CC1` (stereo not drawn) [Compound 270, Cyclopropanecarboxylic acid {5-[4-(3-hydroxy-piperidine-1-carbonyl)-phenyl]-[1,2,4]triazolo[1,5-a]pyridin-2-yl)-amide], the IC50 in experiment [1] is < 100 nM; in experiment [2], 101 to 500 nM. Further, the concentration giving a half-maximal response (EC50) (in experiment [3]; in the experiment with MMP13 in SW1353 cells) was > 1000 nM in each case.

As for `NC(=O)C1CCCCN1C(=O)c1ccc(-c2cccc3nc(NC(=O)C4CC4)nn23)cc1` (stereo not drawn) [Compound 275, 1-{4-[2-(Cyclopropanecarbonyl-amino)-[1,2,4]triazolo[1,5-a]pyridin-5-yl]-benzoyl}-piperidine-2-carboxylic acid amide], the values for the IC50 in experiment [1] and in experiment [2] were < 100 nM and 101 to 500 nM, respectively. In addition, the EC50 (in experiment [3]; in the experiment on MMP13 in SW1353 cells) was > 1000 nM throughout.

Consider `CC(=O)NC1CN(C(=O)c2ccc(-c3cccc4nc(NC(=O)C5CC5)nn34)cc2)C1` [Compound 287, Cyclopropanecarboxylic acid {5-[4-(3-acetylamino-azetidine-1-carbonyl)-phenyl]-[1,2,4]triazolo[1,5-a]pyridin-2-yl}-amide], for which the concentration for half-maximal inhibition (IC50) in experiment [1] is < 100 nM. Also, the EC50 (in experiment [3]; in the experiment with MMP13 in SW1353 cells) was > 1000 nM in each case.

The values above are taken from patent US10206907B2, “Compounds useful for the treatment of degenerative and inflammatory diseases” (GALAPAGOS NV, priority 2008, dated 2019).
